In brackets after ≈: the same amount, converted by molar mass. Where a name gives a salt, the structure may show the parent alone. Read-outs that look alike come from different tables or passages of the source.
How the values were obtained:
[1] = tested on: E. coli NCTC 13353 (CTX-M15, OXA-1); experiment: Antibacterial activity, MIC by agar dilution (CLSI); type: cell-based
Description: (§1) The biological activity of representative compounds according to the invention against various bacterial strains was investigated. In a typical study, overnight grown bacterial cultures were diluted appropriately and inoculated on the agar media containing doubling dilutions of the test compounds. Observations for growth or no growth was performed after 16-20 hours of incubation at 35±2° C. in the ambient air. The overall procedure was performed as per Clinical and Laboratory Standards Institute (CLSI) recommendations, (Clinical and Laboratory Standards Institute (CLSI), Performance Standards for Antimicrobial Susceptibility Testing, 20th Informational Supplement, M07-A9, Volume 32, No. 2, 2012). Molten Mueller Hinton Agar (BD, USA) containing serial dilutions of each antibacterial agent were poured on to the plates and allowed to solidify. Appropriate suspensions from the freshly grown cultures were prepared in normal saline so that about 10^4 CFU/spot of the organism was delivered on to the drug containing agar plates using automated multipoint inoculator (Mast, UK). The plates were incubated in Biochemical oxygen demand (BOD) incubator at 37° C. for 18 hours and then examined for growth.
Table 2 details the antibacterial activity of representative compounds according to invention, against various Multi Drug Resistant (MDR) Gram-negative bacterial strains. The strains selected for study included E. coli NCTC 13353 producing CTX-M15 and OXA-1 beta-lactamase enzymes; K. pneumoniae H521 producing KPC, SHV, TEM beta-lactamase enzymes; and K. pneumoniae S48 producing NDM, SHV, TEM beta-lactamase enzymes. The activities are expressed as Minimum Inhibitory Concentrations (MICs) (mcg/ml).

[2] = tested on: K. pneumoniae H521 (KPC, SHV, TEM); experiment: as above; type: cell-based
Description: as §1
(§2) The strains selected for study included E. coli NCTC 13353 producing CTX-M15 and OXA-1 beta-lactamase enzymes; K. pneumoniae H521 producing KPC, SHV, TEM beta-lactamase enzymes; and K. pneumoniae S48 producing NDM, SHV, TEM beta-lactamase enzymes. The activities are expressed as Minimum Inhibitory Concentrations (MICs) (mcg/ml).

[3] = tested on: K. pneomoniae S48 (NDM, SHV, TEM); experiment: as above; type: cell-based, K. pneumoniae
Description: as §1, §2

[4] = biological target: T1, Class A beta-lactamase, K. pneumoniae ATCC 700603 (SHV 18) (Klebsiella pneumoniae, UniProt P0AD64, E235K/G234A/R39S); experiment: biochemical
T1 construct: preincubated mixture of crude enzyme and the agents; endogenous in cells; host or cells: K. pneumoniae ATCC 700603
T1 sequence (P0AD64 22-286 R39S/G234A/E235K): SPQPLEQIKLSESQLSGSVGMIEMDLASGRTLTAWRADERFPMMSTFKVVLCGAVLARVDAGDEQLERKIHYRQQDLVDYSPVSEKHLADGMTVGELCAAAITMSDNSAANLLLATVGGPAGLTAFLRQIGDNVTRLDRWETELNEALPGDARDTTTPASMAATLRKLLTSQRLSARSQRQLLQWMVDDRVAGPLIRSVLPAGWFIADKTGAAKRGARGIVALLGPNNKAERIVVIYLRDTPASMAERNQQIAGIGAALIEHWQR
Description: (§3) Determination of enzyme inhibition activity: Concentration of the inhibitor required to inhibit 50% of enzymatic activity was measured by adding a chromogenic substrate, Nitrocefin (100 uM, 5 min) to the preincubated mixture of crude enzyme and the agents (37° C., 10 min). Absorbance was measured at 485 nm by UV-spectrophotometer. The IC50 was calculated by plotting absorbance against concentration through Sigmoidal dose response curve using Graph Pad software.
(§4) The enzyme inhibition was expressed as IC50.

[5] = tested on: T2, Class C beta-lactamase, E. coli M50 (CMY/DHA); type: biochemical; details: read-out: Beta-lactamase enzyme inhibition IC50
T2 construct: no borders, tags or purification printed
Description: as §3, §4

[6] = biological target: T3, Class D beta-lactamase, A. baumannii NCTC 13301 (OXA 23) (Acinetobacter baumannii, UniProt Q9L4P2); experiment: Beta-lactamase enzyme inhibition (nitrocefin, crude enzyme); type: biochemical; details: Class D A. baumannii NCTC 13301 (OXA 23); read-out: Beta-lactamase enzyme inhibition IC50
T3 construct: preincubated mixture of crude enzyme and the agents; endogenous in cells; host or cells: A. baumannii NCTC 13301
T3 sequence (Q9L4P2 18-273): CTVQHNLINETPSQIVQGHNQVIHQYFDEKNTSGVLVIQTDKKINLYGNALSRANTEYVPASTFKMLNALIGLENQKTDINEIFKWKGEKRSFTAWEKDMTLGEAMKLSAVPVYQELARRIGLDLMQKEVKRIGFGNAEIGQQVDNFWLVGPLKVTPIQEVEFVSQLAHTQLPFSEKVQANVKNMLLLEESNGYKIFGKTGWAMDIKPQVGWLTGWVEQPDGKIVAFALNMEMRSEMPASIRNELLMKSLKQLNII
Description: as §3, §4

[7] = Escherichia coli, NCTC13353, Table 2, E. Coli NCTC 13353 (CTX-M15, OXA-1), read-out: MIC
[8] = Klebsiella pneumoniae, Table 2, K. pneumoniae H521 (KPC, SHV, TEM), read-out: MIC
[9] = Klebsiella pneumoniae, Table 2, K. pneomoniae S48 (NDM, SHV, TEM), read-out: MIC
[10] = Table 2, E. Coli NCTC 13353 (CTX-M15, OXA-1)
[11] = Table 2, K. pneumoniae H521 (KPC, SHV, TEM)
[12] = Table 2, K. pneomoniae S48 (NDM, SHV, TEM)

In the case of `C[C@H](N)COc1ccccc1CC(=O)NNC(=O)[C@@H]1CC[C@@H]2CN1C(=O)N2OS(=O)(=O)O` [Example 40, (2S,5R)-sulfuric acid mono-[2-(N′-{2-[2-((S)-2-amino-propoxy)-phenyl]-acetyl}-hydrazinocarbonyl)-7-oxo-1,6-diaza-bicyclo[3.2.1]oct-6-yl]ester], the MIC [1, 7] is reported as 2 µg/mL (≈ 4.24 µM), the MIC [2, 8] is reported as 2 µg/mL (≈ 4.24 µM) and the MIC [3, 9] is reported as 2 µg/mL (≈ 4.24 µM). It also gave an IC50 [4] of 110 nM, an IC50 [5] of 99 nM and an IC50 [6] of 1570 nM.
`CC(C)[C@H](N)C(=O)Oc1ccc(CC(=O)NNC(=O)[C@@H]2CC[C@@H]3CN2C(=O)N3OS(=O)(=O)O)cc1` [Example 24, (S)-2-amino-3-methyl-butyric acid 4-{2-oxo-2-[N′-((2S,5R)-7-oxo-6-sulphooxy-1,6-diaza-bicyclo[3.2.1]octane-2-carbonyl)-hydrazino]ethyl}-phenyl ester] showed an MIC [1, 7] of 1 µg/mL (≈ 1.95 µM), an MIC [2, 8] of 4 µg/mL (≈ 7.79 µM) and an MIC [3, 9] of 0.5 µg/mL (≈ 0.974 µM). It also gave an IC50 [4] of 2 nM, an IC50 [5] of 5 nM and an IC50 [6] of 151 nM.
“sodium salt of (2S,5R)-sulfuric acid mono-[2-(N′-(3,3-diphenyl-propionyl)-hydrazinocarbonyl)-7-oxo-1,6-diaza-bicyclo[3.2.1]oct-6-yl]ester [Example 7]” was tested, and the MIC [1, 10] was greater than 32 µg/mL, the MIC [2, 11] was greater than 32 µg/mL and the MIC [3, 12] was greater than 32 µg/mL. It also gave an IC50 [5] of 14 nM and an IC50 [6] of 89 nM.
With `CC(C)[C@@H](N)COc1ccc(CC(=O)NNC(=O)[C@@H]2CC[C@@H]3CN2C(=O)N3OS(=O)(=O)O)c(F)c1` [Example 46, (2S,5R)-sulfuric acid mono-[2-(N′-{2-[2-fluoro-4-((R)-2-amino-3-methyl-butoxy)-phenyl]-acetyl}-hydrazinocarbonyl)-7-oxo-1,6-diaza-bicyclo[3.2.1]oct-6-yl]ester] the MIC [1, 7] was 2 µg/mL (≈ 3.86 µM), the MIC [2, 8] was 4 µg/mL (≈ 7.73 µM) and the MIC [3, 9] was 4 µg/mL (≈ 7.73 µM). For the same compound, the IC50 [4] was 79 nM, the IC50 [5] was 266 nM and the IC50 [6] was 4100 nM.
Work on `Nc1ccc(CC(=O)NNC(=O)[C@@H]2CC[C@@H]3CN2C(=O)N3OS(=O)(=O)O)c(F)c1` [Example 17, (2S,5R)-sulfuric acid mono-[2-(N′-(4-amino-2-fluorophenyl-acetyl)-hydrazinocarbonyl)-7-oxo-1,6-diaza-bicyclo[3.2.1]oct-6-yl]ester] yielded an MIC [1, 7] of 1 µg/mL (≈ 2.32 µM), an MIC [2, 8] of 4 µg/mL (≈ 9.27 µM) and an MIC [3, 9] of 1 µg/mL (≈ 2.32 µM). For the same compound, the IC50 [5] was 14 nM and the IC50 [6] was 194 nM.
For `O=C(Cc1ccccc1O[C@H]1CCNC1)NNC(=O)[C@@H]1CC[C@@H]2CN1C(=O)N2OS(=O)(=O)O` [Example 63, (2S,5R)-sulfuric acid mono-[2-(N′-{2-[2-((S)-pyrrolidin-3-oxy)-phenyl]-acetyl}-hydrazinocarbonyl)-7-oxo-1,6-diaza-bicyclo[3.2.1]oct-6-yl]ester], the MIC [1, 7] was 2 µg/mL (≈ 4.14 µM), the MIC [2, 8] was 8 µg/mL (≈ 16.5 µM) and the MIC [3, 9] was 2 µg/mL (≈ 4.14 µM). It also gave an IC50 [4] of 79 nM, an IC50 [5] of 102 nM and an IC50 [6] of 4120 nM.
With `CC(C)[C@H](N)COc1ccccc1CC(=O)NNC(=O)[C@@H]1CC[C@@H]2CN1C(=O)N2OS(=O)(=O)O` [Example 50, (2S,5R)-sulfuric acid mono-[2-(N′-{2-[2-((S)-2-amino-3-methyl-butoxy)-phenyl]-acetyl}-hydrazinocarbonyl)-7-oxo-1,6-diaza-bicyclo[3.2.1]oct-6-yl]ester] the MIC [1, 7] was 16 µg/mL (≈ 32 µM), the MIC [2, 8] was greater than 32 µg/mL and the MIC [3, 9] was 16 µg/mL (≈ 32 µM). For the same compound, the IC50 [4] was 79 nM, the IC50 [5] was 77 nM and the IC50 [6] was 1170 nM.
In the case of `C[C@H](N)COc1ccc(CC(=O)NNC(=O)[C@@H]2CC[C@@H]3CN2C(=O)N3OS(=O)(=O)O)cc1` [Example 43, (2S,5R)-sulfuric acid mono-[2-(N′-{2-[4-((S)-2-amino-propoxy)-phenyl]-acetyl}-hydrazinocarbonyl)-7-oxo-1,6-diaza-bicyclo[3.2.1]oct-6-yl]ester], the MIC [1, 7] is reported as 0.5 µg/mL (≈ 1.06 µM), the MIC [2, 8] is reported as 2 µg/mL (≈ 4.24 µM) and the MIC [3, 9] is reported as 0.5 µg/mL (≈ 1.06 µM). For the same compound, the IC50 [4] was 386 nM, the IC50 [5] was 37 nM and the IC50 [6] was 522 nM.
In the case of `NCCOc1cccc(CC(=O)NNC(=O)[C@@H]2CC[C@@H]3CN2C(=O)N3OS(=O)(=O)O)c1` [Example 32, (2S,5R)-sulfuric acid mono-[2-(N′-{2-[3-(2-amino-ethoxy)-phenyl]-acetyl}-hydrazinocarbonyl)-7-oxo-1,6-diaza-bicyclo[3.2.1]oct-6-yl]ester], the MIC [1, 7] is reported as 0.5 µg/mL (≈ 1.09 µM), the MIC [2, 8] is reported as 0.5 µg/mL (≈ 1.09 µM) and the MIC [3, 9] is reported as 0.5 µg/mL (≈ 1.09 µM). For the same compound, the IC50 [4] was 76 nM, the IC50 [5] was 33 nM and the IC50 [6] was 1770 nM.
For `O=C(Cc1cccc(OC[C@@H]2CCNC2)c1)NNC(=O)[C@@H]1CC[C@@H]2CN1C(=O)N2OS(=O)(=O)O` [Example 60, (2S,5R)-sulfuric acid mono-[2-(N′-{2-[3-((R)-pyrrolidin-3-ylmethoxy)-phenyl]-acetyl}-hydrazinocarbonyl)-7-oxo-1,6-diaza-bicyclo[3.2.1]oct-6-yl]ester], the MIC [1, 7] was 1 µg/mL (≈ 2.01 µM), the MIC [2, 8] was 2 µg/mL (≈ 4.02 µM) and the MIC [3, 9] was 1 µg/mL (≈ 2.01 µM). For the same compound, the IC50 [4] was 45 nM, the IC50 [5] was 41 nM and the IC50 [6] was 1280 nM.
With `CC(OC(=O)NCCOc1ccccc1CC(=O)NNC(=O)[C@@H]1CC[C@@H]2CN1C(=O)N2OS(=O)(=O)[O-])OC(=O)C(C)C.[Na+]` (stereo partly drawn) [Example 65, sodium salt of isobutyric acid 1-[2-(2-{2-oxo-2-[N′-((2S,5R)-6-sulphooxy-7-oxo-1,6-diaza-bicyclo[3.2.1]octane-2-carbonyl)-hydrazino]-ethyl}-phenoxy)-ethylcarbamoyloxy]-ethyl ester] the MIC [1, 10] was greater than 32 µg/mL, the MIC [2, 11] was greater than 32 µg/mL and the MIC [3, 12] was greater than 32 µg/mL. The IC50 ([4]; Class A K. pneumoniae ATCC 700603 (SHV 18), read-out: Beta-lactamase enzyme inhibition IC50) was 8 nM, the IC50 [5] was 5 nM and the IC50 [6] was 537 nM.
Work on “sodium salt of (2S,5R)-succinic acid tert-butyl ester 4-{2-oxo-2-[N′-(7-oxo-6-sulphooxy-1,6-diaza-bicyclo[3.2.1]octane-2-carbonyl)-hydrazino]ethyl}-phenyl ester [Example 27]” yielded an MIC [1, 10] of 2 µg/mL, an MIC [3, 12] of 8 µg/mL and an IC50 [5] of 14 nM. For the same compound, the IC50 [6] was 498 nM.
In the case of `O=C(O)[C@H]1/C(=C/CO)O[C@@H]2CC(=O)N21` [Clavulanic acid, clavulanic acid, reference compound], the IC50 [5] is reported as greater than 10000 nM.
For `CCOc1ccccc1CC(=O)NNC(=O)[C@@H]1CC[C@@H]2CN1C(=O)N2OS(=O)(=O)O` [Example 15, sodium salt of (2S,5R)-sulfuric acid mono-[2-(N′-(2-ethoxyphenyl-acetyl)-hydrazinocarbonyl)-7-oxo-1,6-diaza-bicyclo[3.2.1]oct-6-yl]ester], the MIC ([1]; Escherichia coli, NCTC13353, 18 h, Table 2, E. Coli NCTC 13353 (CTX-M15, OXA-1), read-out: MIC) was greater than 32 µg/mL, the MIC ([2]; Klebsiella pneumoniae, 18 h, Table 2, K. pneumoniae H521 (KPC, SHV, TEM), read-out: MIC) was greater than 32 µg/mL and the MIC ([3]; Klebsiella pneumoniae, 18 h, Table 2, K. pneomoniae S48 (NDM, SHV, TEM), read-out: MIC) was greater than 32 µg/mL. The IC50 [4] was 49 nM and the IC50 [6] was 210 nM.
Compound `O=C(Cc1cccc(O)c1)NNC(=O)[C@@H]1CC[C@@H]2CN1C(=O)N2OS(=O)(=O)O` [Example 20, sodium salt of (2S,5R)-sulfuric acid mono-[2-(N′-(3-hydroxyphenyl-acetyl)-hydrazinocarbonyl)-7-oxo-1,6-diaza-bicyclo[3.2.1]oct-6-yl]ester] has an MIC ([1]; Escherichia coli, NCTC13353, 18 h) of 0.5 µg/mL, an MIC ([2]; Klebsiella pneumoniae, 18 h) of 1 µg/mL and an MIC ([3]; Klebsiella pneumoniae, 18 h) of 0.5 µg/mL. It also gave an IC50 [4] of 12 nM and an IC50 [6] of 249 nM.
